# Key:
# [1] = test system: soybean plants (cv. “Delta Pine”); assay: Reduction of ethylene formation in leaves of soybean plants (gas chromatography); format: in vivo; conditions: for Ethylene Evolution per Unit Leaf Weight [% of Control]: greenhouse, leaf spray 750 l/ha, 24 hours after treatment, shoots wilted 10 min, incubated 60 min, g/ha of ai: Co++ 40, pyraclostrobin 100, salicylic acid 500
# Method: Soybean plants were raised under greenhouse conditions with two plants each per 12-cm pot. Spray treatments of the leaves were carried out with a volume of liquid of 750 l/ha when the plants had developed one to two trifoliate leaves. 24 hours after treatment, the shoots of the soybean plants were dissected above the cotyledons and wilted for 10 minutes under laboratory conditions. Shoots representing a distinct treatment were incubated for 60 minutes under laboratory conditions in a 100-ml Erlenmeyer flask sealed with a rubber cap. Thereafter, gas samples were taken and analyzed for their ethylene content by gas chromatography.
# Reduction of ethylene formation in leaves of soybean plants (cv. “Delta Pine”)
# [2] = test system: soybeans (cv. “Embrapa 48”); assay: Yield improvement of soybeans naturally infected with Phakopsora pachyrhizi; format: in vivo, soybean; conditions: as in Example 3; pyraclostrobin 112.5 g/ha, Co++ 29 g/ha, alone or combined
# Description: Seeds of soybean cv. “Embrapa 48” were planted and grown under standard conditions with adequate supply of water and nutrients. Infection with Phakopsora pachyrhizi occurred naturally. The active ingredients have been applied twice, 62 and 68 days after seeding.
# Yield improvement of soybeans (cv. “Embrapa 48)
# [3] = test system: Phakopsora pachyrhizi; assay: Spray treatment of soybeans preinfected with Phakopsora pachyrhizi: infection by pathogen; format: in vivo; conditions: soybeans cv. RS10, 8-12% preinfection, spray application, 8 days after treatment; 133 g/ha pyraclostrobin
# Method: (§1) During fruit formation, soybeans of the cultivar RS10 with 8-12% preinfection by Phakopsora pachyrhizi were treated by spray application using customary sprayers with a mixture of 133 g/ha of pyraclostrobin, 80 g/ha of CoCl2×6 H2O(=20 g/ha of cobalt) and 100 g/ha of prohexadione-Ca. Entirely untreated plants and plants treated with 133 g/ha of pyraclostrobin were used for comparison.
# [4] = test system: soybeans of the cultivar RS10; assay: Spray treatment of rust-preinfected soybeans: leaf drop and yield; format: in vivo, soybean; conditions: soybeans cv. RS10, 8-12% preinfection by Phakopsora pachyrhizi, 8 days after treatment; pyraclostrobin 133 g/ha alone or with 80 g/ha CoCl2×6 H2O and 100 g/ha prohexadione-Ca
# Method: as §1
Compound,Ethylene Evolution per Unit Leaf Weight [% of Control] [1],seed yield improvement above the control [2] [%],infection by pathogen [3],leaf drop [4],ethylene formation in drought-stressed soybean leaves ([1]; summary in words of Example 2)
"O.O.O.O.O.O.[Cl-].[Cl-].[Co+2] [CoCl2 × 6 H2O, CoCl2×6 H2O]",41 % of Control,,,,
[Co+2] [Co^++],,22,,,
O=C(O)c1ccccc1O [Salicylic Acid],97 % of Control,,,,
"COC(=O)N(OC)c1ccccc1COc1ccn(-c2ccc(Cl)cc2)n1 [pyraclostrobin, methyl N-{2-[1-(4-chlorophenyl)-1H-pyrazol-3-yloxymethyl]phenyl}(N-methoxy)carbamate]",,24,less infection by pathogen than the entirely untreated plants,considerable leaf drop,inhibits ethylene formation
